The values that follow are results of earlier work, collected in US20020010550A1, “PHARMACOKINETIC-BASED DRUG DESIGN TOOL AND METHOD” (priority 1998, published 2002).

SMILES strings stand for the structures. Like-named read-outs stand apart in the source and are kept apart here.

Data set [1] concerns rabbit intestinal tissue (duodenum, jejunum, ileum, colon). The conditions noted are these: donor concentration given with each compound.
The subject of the next data set is intestinal transport. The conditions noted are these: permeability standards.
For data set [2] the following is noted: Plasma Kinetics.
For data set [3] the following is noted: human.

On to `O=C[C@H](O)[C@@H](O)[C@H](O)[C@H](O)CO` [D-glucose], for which the Pe in data set [1] (Colon) is 9.28 ×10⁻⁶ cm/s; in data set [1] (Duodenum), 4.55 ×10⁻⁶ cm/s; in data set [1] (Ileum), 14.5 ×10⁻⁶ cm/s; in data set [1] (Jejunum) it was 10.2 ×10⁻⁶ cm/s. Also, the Transport mechanism result in the data set with intestinal transport is on record as “Carrier-mediated Influx”.

`Nc1nc2c(ncn2COC(CO)CO)c(=O)[nH]1.[Na]` [Gancyclovir, 9-(1,3-dihydroxy-2-propoxymethyl)guanine, monosodium salt]: in data set [2], the “Fluid Volume” value is on record as 76,800 ml, the k12 is 0.839, the k21 is given as 0.670 and the kelim was 0.161. Also, in data set [3] (fasted, oral), the “bioavailability of fasted patients in clinical trials” value was 3-20%. In addition, in data set [3] (in vivo), the absorption entry is “poorly absorbed” and the in vivo biotransformation entry was “no in vivo biotransformation”.

As to `C[C@]12CCC(=O)C=C1CC[C@@H]1[C@@H]2[C@@H](O)C[C@@]2(C)[C@H]1CC[C@]2(O)C(=O)CO` [hydrocortisone], the Pe in data set [1] (Colon) is 3.85 ×10⁻⁶ cm/s; in data set [1] (Duodenum) it was 0.3 ×10⁻⁶ cm/s; in data set [1] (Ileum), 2.91 ×10⁻⁶ cm/s; in data set [1] (Jejunum) it was 1.31 ×10⁻⁶ cm/s.

For `OC[C@@H](O)[C@@H](O)[C@H](O)[C@H](O)CO` [mannitol], the Pe in data set [1] (Colon) is 5.53 ×10⁻⁶ cm/s; in data set [1] (Duodenum) it was 1.73 ×10⁻⁶ cm/s; in data set [1] (Ileum), 4.02 ×10⁻⁶ cm/s; in data set [1] (Jejunum), 3.54 ×10⁻⁶ cm/s. In addition, in the data set with intestinal transport, the Transport mechanism entry is on record as “Passive Paracellular”.
